From ChEMBL document CHEMBL4265936, “Pyrazolo[4,3-b]pyrimido[4,5-e][1,4]diazepine derivatives as new multi-targeted inhibitors of Aurora A/B and KDR” (Eur J Med Chem, 2018)

Experiments:
[1] = molecular target: Vascular endothelial growth factor receptor 1 (Homo sapiens) (UniProt P17948); assay: Inhibition of recombinant human VEGFR1 at 100 nM after 60 mins by ELISA relative to control
[2] = tested on: SGC-7901; assay: Antiproliferative activity against human SGC7901 cells after 72 hrs by sulforhodamine B assay; assay type: functional, cell-based; conditions: SGC-7901, 72 h
[3] = molecular target: Insulin-like growth factor 1 receptor (Homo sapiens) (UniProt P08069); assay: Inhibition of recombinant human IGF1R at 100 nM after 60 mins by ELISA relative to control
[4] = tested on: SNU-5; assay: Antitumor activity against human SNU5 cells xenografted in nude mouse assessed as delay in tumor growth at 20 mg/kg, po qd for 21 days relative to control; assay type: functional
[5] = Oral bioavailability in ICR mouse at 25 mg/kg administered as single dose by LC-MS analysis; assay type: ADME, organism-based; conditions: in vivo
[6] = tested on: MKN-45; assay: Cell cycle arrest in human MKN45 cells assessed as accumulation at G2/M phase after 24 hrs by propidium iodide staining based flow cytometry; assay type: functional
[7] = molecular target: Receptor tyrosine-protein kinase erbB-2 (Homo sapiens) (UniProt P04626); assay: Inhibition of recombinant human Erbb2 at 1000 nM after 60 mins by ELISA relative to control
[8] = molecular target: Proto-oncogene tyrosine-protein kinase Src (Homo sapiens) (UniProt P12931); conditions: at 1000 nM
Description: Inhibition of recombinant human c-SRC at 1000 nM after 60 mins by ELISA relative to control

[9] = molecular target: Receptor tyrosine-protein kinase erbB-4 (Homo sapiens) (UniProt Q15303); assay: Inhibition of recombinant human Erbb4 at 1000 nM after 60 mins by ELISA relative to control
Receptor tyrosine-protein kinase erbB-4 (Homo sapiens), sequence (Q15303 whole entry): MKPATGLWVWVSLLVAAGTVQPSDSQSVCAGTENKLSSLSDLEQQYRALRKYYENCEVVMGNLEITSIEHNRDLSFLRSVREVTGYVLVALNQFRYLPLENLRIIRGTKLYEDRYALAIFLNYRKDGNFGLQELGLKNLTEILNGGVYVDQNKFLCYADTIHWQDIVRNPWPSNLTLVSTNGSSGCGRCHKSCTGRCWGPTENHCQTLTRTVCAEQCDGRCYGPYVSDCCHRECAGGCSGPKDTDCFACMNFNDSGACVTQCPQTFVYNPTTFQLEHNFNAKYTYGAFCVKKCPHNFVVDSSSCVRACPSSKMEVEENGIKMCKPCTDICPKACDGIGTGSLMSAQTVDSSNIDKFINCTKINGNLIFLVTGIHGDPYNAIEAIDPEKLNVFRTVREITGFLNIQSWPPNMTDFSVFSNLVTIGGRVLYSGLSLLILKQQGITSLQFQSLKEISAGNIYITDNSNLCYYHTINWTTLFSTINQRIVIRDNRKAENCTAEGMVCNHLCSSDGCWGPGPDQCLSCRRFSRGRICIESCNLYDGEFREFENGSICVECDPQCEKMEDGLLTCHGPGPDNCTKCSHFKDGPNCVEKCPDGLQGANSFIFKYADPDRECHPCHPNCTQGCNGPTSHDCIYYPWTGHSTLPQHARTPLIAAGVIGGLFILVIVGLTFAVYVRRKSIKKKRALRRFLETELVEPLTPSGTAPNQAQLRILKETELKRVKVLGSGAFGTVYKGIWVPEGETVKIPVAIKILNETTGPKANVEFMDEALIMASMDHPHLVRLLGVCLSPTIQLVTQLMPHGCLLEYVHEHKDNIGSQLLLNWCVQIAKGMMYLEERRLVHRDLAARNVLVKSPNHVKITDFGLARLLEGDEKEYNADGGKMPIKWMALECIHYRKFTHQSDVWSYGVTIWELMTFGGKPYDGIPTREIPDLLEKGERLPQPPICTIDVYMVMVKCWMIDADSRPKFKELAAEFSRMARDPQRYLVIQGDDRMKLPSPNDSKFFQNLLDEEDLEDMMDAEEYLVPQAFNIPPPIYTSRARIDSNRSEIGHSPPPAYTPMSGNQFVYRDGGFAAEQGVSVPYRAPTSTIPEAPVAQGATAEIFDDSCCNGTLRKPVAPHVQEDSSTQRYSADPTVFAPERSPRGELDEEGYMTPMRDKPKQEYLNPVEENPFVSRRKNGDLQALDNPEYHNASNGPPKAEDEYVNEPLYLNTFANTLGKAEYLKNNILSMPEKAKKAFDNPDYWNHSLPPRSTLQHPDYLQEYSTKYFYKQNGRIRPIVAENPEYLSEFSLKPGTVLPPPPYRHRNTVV

[10] = molecular target: T1, Aurora kinase A (Homo sapiens, UniProt O14965); assay: Inhibition of Aurora A (unknown origin) using STK S2 as substrate after 40 mins by HTRF assay
T1 sequence (O14965 whole entry): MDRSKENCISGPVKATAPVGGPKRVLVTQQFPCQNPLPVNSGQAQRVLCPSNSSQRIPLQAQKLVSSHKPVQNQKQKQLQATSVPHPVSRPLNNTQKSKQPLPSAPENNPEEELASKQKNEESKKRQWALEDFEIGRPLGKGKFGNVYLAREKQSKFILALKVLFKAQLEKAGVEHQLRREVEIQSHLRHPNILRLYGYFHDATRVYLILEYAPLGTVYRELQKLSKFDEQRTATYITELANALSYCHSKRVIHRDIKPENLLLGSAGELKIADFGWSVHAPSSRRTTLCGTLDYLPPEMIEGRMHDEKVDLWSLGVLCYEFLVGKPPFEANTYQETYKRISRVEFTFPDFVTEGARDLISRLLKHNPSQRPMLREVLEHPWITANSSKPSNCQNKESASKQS

[11] = molecular target: Receptor tyrosine-protein kinase erbB-4 (Homo sapiens) (UniProt Q15303); assay: Inhibition of recombinant human Erbb4 at 100 nM after 60 mins by ELISA relative to control
[12] = molecular target: Proto-oncogene tyrosine-protein kinase Src (Homo sapiens) (UniProt P12931); assay: Inhibition of recombinant human c-SRC at 100 nM after 60 mins by ELISA relative to control
[13] = molecular target: Epidermal growth factor receptor (Homo sapiens) (UniProt P00533); conditions: at 1000 nM
Epidermal growth factor receptor (Homo sapiens), sequence (P00533 whole entry): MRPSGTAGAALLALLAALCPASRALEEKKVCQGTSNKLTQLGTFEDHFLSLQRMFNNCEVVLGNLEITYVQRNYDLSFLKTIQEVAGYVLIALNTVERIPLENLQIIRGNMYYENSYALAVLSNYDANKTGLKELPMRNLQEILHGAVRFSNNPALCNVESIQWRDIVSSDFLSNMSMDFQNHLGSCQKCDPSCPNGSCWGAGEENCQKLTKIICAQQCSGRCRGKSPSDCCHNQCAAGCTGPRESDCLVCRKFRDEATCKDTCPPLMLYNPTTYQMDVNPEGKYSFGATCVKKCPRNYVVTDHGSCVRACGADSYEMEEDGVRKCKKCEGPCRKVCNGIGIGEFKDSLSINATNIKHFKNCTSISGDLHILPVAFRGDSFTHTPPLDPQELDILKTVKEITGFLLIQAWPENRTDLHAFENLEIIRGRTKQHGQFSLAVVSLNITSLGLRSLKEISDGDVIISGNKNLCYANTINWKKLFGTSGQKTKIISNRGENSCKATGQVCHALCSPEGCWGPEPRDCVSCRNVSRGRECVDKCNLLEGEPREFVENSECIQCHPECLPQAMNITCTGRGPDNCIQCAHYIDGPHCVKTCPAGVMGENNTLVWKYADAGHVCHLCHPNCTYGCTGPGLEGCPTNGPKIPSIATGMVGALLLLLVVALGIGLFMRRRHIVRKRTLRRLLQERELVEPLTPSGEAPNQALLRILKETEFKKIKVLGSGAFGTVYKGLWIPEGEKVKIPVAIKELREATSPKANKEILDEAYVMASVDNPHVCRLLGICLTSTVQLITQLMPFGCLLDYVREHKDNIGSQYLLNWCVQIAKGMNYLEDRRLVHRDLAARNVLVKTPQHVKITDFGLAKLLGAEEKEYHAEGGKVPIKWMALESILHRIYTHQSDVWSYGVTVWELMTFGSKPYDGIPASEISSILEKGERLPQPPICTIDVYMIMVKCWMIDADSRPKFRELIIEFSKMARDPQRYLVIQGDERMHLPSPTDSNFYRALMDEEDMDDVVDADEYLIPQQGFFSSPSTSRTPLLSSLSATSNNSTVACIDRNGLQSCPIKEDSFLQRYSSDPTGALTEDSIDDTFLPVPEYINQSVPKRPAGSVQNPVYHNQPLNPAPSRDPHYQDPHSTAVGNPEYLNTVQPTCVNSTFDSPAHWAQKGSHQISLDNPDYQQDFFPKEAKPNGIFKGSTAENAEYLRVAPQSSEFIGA
Description: Inhibition of recombinant human EGFR at 1000 nM after 60 mins by ELISA relative to control

[14] = molecular target: Platelet-derived growth factor receptor beta (Homo sapiens) (UniProt P09619); assay: Inhibition of recombinant human PDGFRbeta at 100 nM after 60 mins by ELISA relative to control
[15] = tested on: Mus musculus; assay: AUC (0 to t) in ICR mouse at 5 mg/kg, iv administered as single dose by LC-MS analysis; assay type: ADME, organism-based; conditions: in vivo
[16] = tested on: BGC-823; assay: Antiproliferative activity against human BGC823 cells after 72 hrs by sulforhodamine B assay; assay type: functional, cell-based; conditions: BGC-823, 72 h
[17] = tested on: SNU-5; assay: Antiproliferative activity against human SNU5 cells after 72 hrs by CCK8 assay; assay type: functional, cell-based; conditions: SNU-5, 72 h
[18] = tested on: Mus musculus; assay: Toxicity in nude mouse xenografted with human SNU5 cells assessed as body weight at 20 mg/kg, po qd for 21 days (reference value: 19.6 g); assay type: organism-based; conditions: in vivo, 504 h
[19] = Clearance in ICR mouse at 5 mg/kg, iv administered as single dose by LC-MS analysis; assay type: ADME, organism-based; conditions: in vivo
[20] = tested on: MKN-74; assay: Antiproliferative activity against human MKN74 cells after 72 hrs by sulforhodamine B assay; assay type: functional, cell-based; conditions: MKN-74, 72 h
[21] = molecular target: Tyrosine-protein kinase ABL1 (Homo sapiens) (UniProt P00519); assay: Inhibition of recombinant human ABL at 100 nM after 60 mins by ELISA relative to control
Tyrosine-protein kinase ABL1 (Homo sapiens), sequence (P00519 whole entry): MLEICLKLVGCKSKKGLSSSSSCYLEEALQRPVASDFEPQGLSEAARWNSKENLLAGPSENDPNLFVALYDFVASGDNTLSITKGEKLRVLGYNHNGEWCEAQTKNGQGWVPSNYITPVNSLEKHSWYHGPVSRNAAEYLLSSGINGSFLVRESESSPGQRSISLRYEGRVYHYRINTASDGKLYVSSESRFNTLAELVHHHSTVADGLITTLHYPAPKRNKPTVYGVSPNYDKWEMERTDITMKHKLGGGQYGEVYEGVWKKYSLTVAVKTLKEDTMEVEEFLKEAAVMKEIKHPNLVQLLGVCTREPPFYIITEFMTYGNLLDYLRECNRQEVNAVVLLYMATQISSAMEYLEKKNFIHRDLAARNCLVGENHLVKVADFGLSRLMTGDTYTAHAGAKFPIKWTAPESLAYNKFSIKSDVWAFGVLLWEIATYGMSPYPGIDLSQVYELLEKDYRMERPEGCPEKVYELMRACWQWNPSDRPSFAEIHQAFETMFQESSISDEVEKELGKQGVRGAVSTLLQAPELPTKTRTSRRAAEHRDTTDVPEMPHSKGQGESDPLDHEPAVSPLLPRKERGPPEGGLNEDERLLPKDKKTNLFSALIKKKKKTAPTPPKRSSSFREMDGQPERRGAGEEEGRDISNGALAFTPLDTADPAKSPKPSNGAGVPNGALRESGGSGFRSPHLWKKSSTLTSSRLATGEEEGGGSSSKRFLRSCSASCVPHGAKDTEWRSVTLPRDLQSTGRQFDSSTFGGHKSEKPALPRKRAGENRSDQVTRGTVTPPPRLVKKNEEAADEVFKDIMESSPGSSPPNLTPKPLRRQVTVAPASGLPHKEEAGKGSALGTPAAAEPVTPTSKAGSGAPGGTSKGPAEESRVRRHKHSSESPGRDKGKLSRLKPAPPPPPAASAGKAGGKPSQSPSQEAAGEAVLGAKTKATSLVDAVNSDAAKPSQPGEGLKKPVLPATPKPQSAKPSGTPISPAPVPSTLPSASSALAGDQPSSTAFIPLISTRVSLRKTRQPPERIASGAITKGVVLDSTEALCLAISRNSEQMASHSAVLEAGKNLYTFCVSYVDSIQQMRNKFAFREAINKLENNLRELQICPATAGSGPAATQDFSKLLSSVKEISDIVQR

[22] = Cmax in ICR mouse at 25 mg/kg, po administered as single dose by LC-MS analysis; assay type: ADME, organism-based; set-up: dose 25 mg/kg, route oral; conditions: in vivo
[23] = tested on: MKN-45; assay: Antiproliferative activity against human MKN45 cells after 72 hrs by sulforhodamine B assay; assay type: functional, cell-based; conditions: MKN-45, 72 h
[24] = tested on: Mus musculus; assay: Toxicity in nude mouse xenografted with human SNU5 cells assessed as mortality at 20 mg/kg, po qd for 21 days; assay type: organism-based; conditions: in vivo, 504 h
[25] = tested on: SNU-5; assay: Cell cycle arrest in human SNU5 cells assessed as accumulation at G2/M phase after 24 hrs by propidium iodide staining based flow cytometry; assay type: functional
[26] = molecular target: Epidermal growth factor receptor (Homo sapiens) (UniProt P00533); assay: Inhibition of recombinant human EGFR at 100 nM after 60 mins by ELISA relative to control
[27] = molecular target: Vascular endothelial growth factor receptor 2 (Homo sapiens, UniProt P35968); assay: biochemical; assay type: cell-based, Sf21
Description: Inhibition of recombinant human N-terminal His6-tagged KDR (790 to end residues) expressed in baculovirus infected Sf21 insect cells after 60 mins by ELISA

[28] = molecular target: Platelet-derived growth factor receptor beta (Homo sapiens) (UniProt P09619); assay: Inhibition of recombinant human PDGFRbeta at 1000 nM after 60 mins by ELISA relative to control
[29] = molecular target: Insulin-like growth factor 1 receptor (Homo sapiens) (UniProt P08069); assay: Inhibition of recombinant human IGF1R at 1000 nM after 60 mins by ELISA relative to control
[30] = tested on: SGC-7901; assay: Cell cycle arrest in human SGC7901 cells assessed as accumulation at G2/M phase after 24 hrs by propidium iodide staining based flow cytometry; assay type: functional
[31] = Terminal elimination half life in ICR mouse at 5 mg/kg, iv administered as single dose by LC-MS analysis; assay type: ADME, organism-based; conditions: in vivo, read-out: beta t1/2 (converted)
[32] = Terminal elimination half life in ICR mouse at 25 mg/kg, po administered as single dose by LC-MS analysis; assay type: ADME, organism-based; conditions: in vivo, read-out: beta t1/2 (converted)
[33] = molecular target: Ephrin type-A receptor 2 (Homo sapiens) (UniProt P29317); assay: Inhibition of recombinant human EPHA2 at 100 nM after 60 mins by ELISA relative to control
[34] = tested on: MKN-74; assay: Cell cycle arrest in human MKN74 cells assessed as accumulation at G2/M phase after 24 hrs by propidium iodide staining based flow cytometry; assay type: functional
[35] = molecular target: Receptor tyrosine-protein kinase erbB-2 (Homo sapiens) (UniProt P04626); assay: Inhibition of recombinant human Erbb2 at 100 nM after 60 mins by ELISA relative to control
[36] = molecular target: Proto-oncogene tyrosine-protein kinase receptor Ret (Homo sapiens) (UniProt P07949); assay: Inhibition of recombinant human RET at 1000 nM after 60 mins by ELISA relative to control
[37] = molecular target: Aurora kinase B (Homo sapiens, UniProt Q96GD4); assay: Inhibition of Aurora B (unknown origin) using STK S2 as substrate after 30 mins by HTRF assay
[38] = tested on: Mus musculus; assay: AUC (0 to t) in ICR mouse at 25 mg/kg, po administered as single dose by LC-MS analysis; assay type: ADME, organism-based; conditions: in vivo
[39] = molecular target: Vascular endothelial growth factor receptor 1 (Homo sapiens) (UniProt P17948); assay: Inhibition of recombinant human VEGFR1 at 1000 nM after 60 mins by ELISA relative to control
[40] = Tmax in ICR mouse at 25 mg/kg, po administered as single dose by LC-MS analysis; assay type: ADME, organism-based; conditions: in vivo
[41] = molecular target: Tyrosine-protein kinase ABL1 (Homo sapiens) (UniProt P00519); conditions: at 1000 nM
Description: Inhibition of recombinant human ABL at 1000 nM after 60 mins by ELISA relative to control

[42] = Volume of distribution at steady state in ICR mouse at 5 mg/kg, iv administered as single dose by LC-MS analysis; assay type: ADME, organism-based; conditions: in vivo, read-out: Vdss
[43] = MRT in ICR mouse at 5 mg/kg, iv administered as single dose by LC-MS analysis; assay type: ADME, organism-based; conditions: in vivo
[44] = molecular target: Proto-oncogene tyrosine-protein kinase receptor Ret (Homo sapiens) (UniProt P07949); assay: Inhibition of recombinant human RET at 100 nM after 60 mins by ELISA relative to control

Vascular endothelial growth factor receptor 1 (Homo sapiens), sequence (P17948 whole entry): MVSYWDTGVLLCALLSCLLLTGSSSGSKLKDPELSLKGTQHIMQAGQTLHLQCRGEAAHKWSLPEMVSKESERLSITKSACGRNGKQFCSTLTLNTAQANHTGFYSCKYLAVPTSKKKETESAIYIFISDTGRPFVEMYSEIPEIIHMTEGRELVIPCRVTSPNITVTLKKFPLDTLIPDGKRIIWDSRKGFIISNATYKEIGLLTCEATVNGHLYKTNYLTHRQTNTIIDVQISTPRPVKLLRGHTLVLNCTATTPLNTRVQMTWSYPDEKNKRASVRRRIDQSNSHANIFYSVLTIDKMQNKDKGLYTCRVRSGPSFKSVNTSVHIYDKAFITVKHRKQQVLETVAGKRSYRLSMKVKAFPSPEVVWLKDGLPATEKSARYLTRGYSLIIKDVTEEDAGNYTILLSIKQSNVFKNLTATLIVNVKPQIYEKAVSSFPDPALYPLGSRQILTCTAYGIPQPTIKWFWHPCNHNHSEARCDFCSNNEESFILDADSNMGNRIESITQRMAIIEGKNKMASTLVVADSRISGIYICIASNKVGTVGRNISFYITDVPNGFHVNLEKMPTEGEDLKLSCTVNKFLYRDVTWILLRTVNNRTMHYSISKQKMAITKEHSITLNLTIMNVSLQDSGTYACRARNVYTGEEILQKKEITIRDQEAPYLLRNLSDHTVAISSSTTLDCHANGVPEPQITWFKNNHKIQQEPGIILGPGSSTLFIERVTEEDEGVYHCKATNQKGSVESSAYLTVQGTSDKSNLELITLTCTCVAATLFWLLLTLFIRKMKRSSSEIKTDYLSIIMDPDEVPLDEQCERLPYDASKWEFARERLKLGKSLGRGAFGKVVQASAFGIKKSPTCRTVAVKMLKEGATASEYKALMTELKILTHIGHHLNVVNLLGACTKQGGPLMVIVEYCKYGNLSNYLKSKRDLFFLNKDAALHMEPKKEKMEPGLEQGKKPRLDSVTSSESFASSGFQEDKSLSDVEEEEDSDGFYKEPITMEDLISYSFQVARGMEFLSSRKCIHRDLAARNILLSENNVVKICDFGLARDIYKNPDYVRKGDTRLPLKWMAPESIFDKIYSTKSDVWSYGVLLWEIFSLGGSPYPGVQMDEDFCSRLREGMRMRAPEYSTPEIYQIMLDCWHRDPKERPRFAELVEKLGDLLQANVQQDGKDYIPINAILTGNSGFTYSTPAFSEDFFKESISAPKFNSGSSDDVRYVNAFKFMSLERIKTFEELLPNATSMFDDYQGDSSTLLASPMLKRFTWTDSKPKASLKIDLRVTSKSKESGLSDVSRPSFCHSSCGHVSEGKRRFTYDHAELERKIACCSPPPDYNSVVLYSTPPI

Cc1ccc(C2=Nc3c(n[nH]c3C)Nc3nc(N4CCOCC4)ncc32)cc1 showed an inhibition [1] of 0%, an IC50 [2] greater than 10000 nM and an inhibition [3] of 1.4%. For the same molecule, the T/C [4] was 61.63%, the bioavailability [5] was 63.8% and the Activity [6] was “Dose-dependent effect”. It also gave an inhibition [7] of 0%, an inhibition [8] of 32% and an inhibition [9] of 17.5%. For the same molecule, the IC50 [10] was 46.2 nM, the inhibition [11] was 12% and the inhibition [12] was 0%. It also gave an inhibition [13] of 37.4%, an inhibition [14] of 13.2% and an AUCt [15] of 4724 ng·mL·h. For the same molecule, the IC50 [16] was greater than 10000 nM, the IC50 [17] was 1270 nM and the Activity [18] was 18.4 g. It also gave a clearance [19] of 17.3 mL/min/kg, an IC50 [20] of 3140 nM and an inhibition [21] of 0%. The Cmax [22] was 2780 ng/mL, the IC50 [23] was 1260 nM and the Activity [24] was “Non-Toxic”. For the same molecule, the Activity [25] was “Dose-dependent effect”, the inhibition [26] was 24.5% and the IC50 [27] was 21.6 nM. The inhibition [28] was 41%, the inhibition [29] was 26.8% and the Activity [30] was “Dose-dependent effect”. The half-life [31] was 1.53 h, the half-life [32] was 3.27 h and the inhibition [33] was 3.9%. For the same molecule, the Activity [34] was “Dose-dependent effect”, the inhibition [35] was 3% and the inhibition [36] was 68.7%. For the same molecule, the IC50 [37] was 37.6 nM, the AUCt [38] was 15335 ng·mL·h and the inhibition [39] was 28.1%. For the same molecule, the Tmax [40] was 0.5 h, the inhibition [41] was 0% and the Vd [42] was 2.01 L/kg. It also gave an MRT [43] of 1.93 h and an inhibition [44] of 28.7%.
